Measured values from patent US9826734B2, “Etherified lactate esters, method for the production thereof and use thereof for enhancing the effect of plant protecting agents” (Clariant International Ltd., priority 2011, dated 2017).

Key:
Assay type in all cases: physicochemical
[1] = Foam behavior, foam test of CIPAC Method MT47; conditions: 3 g/l, CIPAC D water (342 ppm)
Text: The important properties of interface-active substances include the foam behavior, particularly in aqueous systems. Virtually all surfactants foam, and the time to collapse of the foam has to be shortened in the case of critical (highly foaming) surfactants through addition of defoamers to formulation or to aqueous use preparation. The foam behavior of certain of the substances of the invention was characterized, using aqueous solutions at a concentration of 3 g/l, by the foam test of CIPAC Method MT47.

[2] = Static surface tension in aqueous systems, Pending Drop Method (DSA10 Goniometer); conditions: room temperature (20° C.)
[3] = Dynamic surface tension, bubble pressure method (BP2100 tensiometer); conditions: surface age 200 milliseconds
Description: The dynamic surface tension was determined via the bubble pressure method (BP2100, tensiometer, Krüss). With a time span relevant for the spray application of agrochemicals in aqueous dilution (referred to as the surface age in the bubble pressure method) of 200 milliseconds, the value of the dynamic surface tension in [mN/m] correlates with the adherence on difficult-to-wet plants such as barley (cereal). A value of 50 mN/m (at 20-21° C.) produces, relative to water (72.8 mN/m), an improvement in the adherence from “zero adherence” to about 50% (Baur P, Pontzen R 2007. Basic features of plant surface wettability and deposit formation and the impact of adjuvants. In: R E Gaskin ed. Proceeding of the 8th International Symposium on Adjuvants for Agrochemicals. Publisher: International Society for Agrochemical Adjuvants (ISAA), Columbus, Ohio, USA). […] The etherified lactate esters are therefore outstandingly suitable for promoting the accommodation of agrochemicals by cereals (with maize, rice, millet), banana, cabbage/oil seed rape, soybean, and other difficult-to-wet crop plants and weed plants. The positive wetting and sticking effects also apply, of course, for other organisms and artificial surfaces and/or technical applications, for the purpose, for instance, of achieving thin coatings on, or cleaning, surfaces.

Percentage foam volume ([1]; 10 s) [%] | Percentage foam volume ([1]; 60 s) [%] | Percentage foam volume ([1]; 3 min) [%] | Percentage foam volume ([1]; 12 min) [%] | Static surface tension ([2]; 0.3 g/l in water) [mN/m] | Static surface tension ([2]; 3 g/l in water) [mN/m] | Dynamic surface tension ([3]; 0.3 g/l in water) [mN/m] | Dynamic surface tension ([3]; 3 g/l in water) [mN/m] | Substance
0 | 0 | 0 | 0 | 54.33 | 42.23 | 58.6 | 48.1 | 2-ethylhexyl lactate 15EO
10 | 5 | 5 | 0 | 52.99 | 35.18 | 56.6 | 46.6 | 2-ethylhexyl lactate 10EO
 |  |  |  | 31.38 | 31.51 | 50.9 | 36.2 | Lauryl lactate 8EO/5PO
25 | 10 | 10 | 10 | 43.35 | 28.48 | 50.7 | 29.6 | 2-ethylhexyl lactate 2PO/5EO
 |  |  |  | 31.63 | 31.34 | 51.9 | 37.4 | Lauryl lactate 5EO/2PO
 |  |  |  | 31.65 | 30.14 | 52.7 | 36.5 | Lauryl lactate 5EO/5PO
 |  |  |  | 30.76 | 30.71 | 54.3 | 37.7 | Lauryl lactate 8EO/2PO
50 | 40 | 20 | 10 | 48.65 | 32.61 | 54.4 | 35.3 | 2-ethylhexyl lactate 5EO
50 | 10 | 0 | 0 | 47.43 | 36.0 | 54.2 | 37.4 | 2-ethylhexyl lactate 2PO/10EO
5 | 5 | 5 | 5 | 45.34 | 28.19 | 50.9 | 26.8 | 2-ethylhexyl lactate 2EO
2 | 2 | 0 | 0 | 40.40 | 29.47 | 47.8 | 30.7 | 2-ethylhexyl lactate 2PO/2EO
